According to patent US5312816A, “Method of combatting osteoporosis in mammalian subjects, utilizing organic boron compounds” (priority 1993, dated 1994):

Tests used:
Elastase = assay: Mouse macrophage elastase activity; assay type: cell-based; settings: Table XVIII; mouse macrophage, 60 min incubation; read-out: Elastase IC50
From the text: Elastase- N-succinyl-L-alanyl-L-alanine-p-nitroanilide, pH 8.0, p-nitro anilide 410 nm.

Cathepsin D [1] = target: T1, Cathepsin D (Mus musculus, UniProt P18242); assay: Mouse hepatic lysosomal cathepsin D activity; assay type: biochemical
T1 construct: azocasein assay pH 5.0
From the text: (§1) 1. Cf1 male mouse hepatic 10% homogenates in 0.25M sucrose+0.001MEDTA,pH 7.2.
(§2) Lysosomal Enzymes - free and total [triton X-100].
(§3) 2. Acid Cathepsin D -azocasein-pH 5.0, hydrolytic azo-peptide produce 366 nm.
Cathepsin azo casein activity -

Aryl sulphatase [2] = assay: Mouse macrophage aryl sulphatase activity; assay type: cell-based; settings: Table XVII; mouse macrophage, 60 min incubation; read-out: Aryl Sulphatase IC50
[3] = target: Prostaglandin cyclooxygenase; assay: Mouse macrophage prostaglandin cyclooxygenase activity; assay type: cell-based; settings: Table XVIII; mouse macrophage, 60 min incubation; read-out: Prostaglandin Cyclooxygenase IC50
From the text: (§4) 3. Mouse macrophages J774A.1 BALB/c
Prostaglandin synthetase purified beef seminal vesicle ^3 H arachidonic acid (86.2 Ci/mmol), tlc separation.

Cf1 male mice [4] = assay: Anti-inflammatory screen, Winter's test, 2% carrageenan hind foot; assay type: in vivo; settings: Table XIV; unit inferred; unit assumed
Protocol: Anti-inflammatory Screen- Cf1 - male mice-Winter's Test 2% carrageenan S.C. plantar surface of hind foot, drugs administered @8 or 10 mg/kg I.P. 2X
Winter, C.A., et al, Proc. Soc.

Aryl sulphatase [5] = assay: Mouse hepatic lysosomal aryl sulphatase activity; assay type: biochemical; settings: Table XV, 60 min incubation
From the text: as §1, §2
3. Aryl sulphatase- p-nitrocatechol sulfate, pH
5. 8 p-nitro-catechol product 510 nm.

Cf1 male mice [6] = assay: Hot plate tail flick test; assay type: in vivo; settings: Table XIV; unit not given
Cf1 male mice [7] = assay: Writhing reflex, 0.6% acetic acid; assay type: in vivo; settings: Table XIV; unit inferred; unit assumed
Protocol: Writhing reflex- Cf1 -male mice- 0.6% acetic acid I.P. drugs administered @20 mg/kg/ I.P. 20 min. later - the # of stretches/10 min.
Hendershot, L.C., et al, J.

Trypsin [8] = assay: Mouse macrophage trypsin (BAEE) activity; assay type: cell-based; settings: Table XVIII; mouse macrophage, 60 min incubation; read-out: Trypsin BAEE IC50
Sprague Dawley male rats [9] = assay: Chronic adjuvant arthritis screen, Mycobacterium butyricum; assay type: in vivo; settings: Table XIV; unit not given
Sprague Dawley male rats [10] = assay: Anti-pleurisy screen, Evans blue + carrageenan; assay type: in vivo; settings: Table XIV; unit not given
Acid phosphatase [11] = assay: Mouse macrophage acid phosphatase activity; assay type: cell-based; settings: Table XVII; mouse macrophage, 60 min incubation; read-out: Acid Phosphatase IC50
Pg. cyclooxygenase = target: T2, Pg. cyclooxygenase (Sus scrofa, UniProt A0A287ANF9); assay: Porcine seminal vesicles Pg. cyclooxygenase; assay type: biochemical; settings: Table XVI; 60 min incubation
T2 construct: Porcine Seminal; from tissue; the methods section prints beef seminal vesicle

Commercial Collagenase = assay: Commercial collagenase (type not stated); assay type: biochemical; settings: Table XVI; 60 min incubation
From the text: 3. Collagenase I, Clostridium histolyticum, bone, skin, tendon, blood vessel, dentine, GI. substrate: rat collagen, N-[propionate-2-3-^3 H] propionylated measured as dpm released.
4. Collagenase II, Clostridium histolyticum, cartilage collagen.

Trypsin [12] = assay: Mouse hepatic trypsin activity; assay type: biochemical; settings: Table XVI; 60 min incubation; read-out: Mouse Hepatic Trypsin IC50
From the text: as §1
1. Trypsin- N-benzoyl-L-arginine ethyl ester pH 8.0, hydrolytic product 253 nm.

Cathepsin D [13] = target: T1, Cathepsin D; assay: Mouse macrophage cathepsin D activity; assay type: cell-based; settings: Table XVII; mouse macrophage, 60 min incubation; read-out: Cathepsin D pH 5.0 IC50
From the text: as §4, §3

Acid phosphatase [14] = assay: Mouse hepatic lysosomal acid phosphatase activity; assay type: biochemical; settings: Table XV; mouse hepatic, 60 min incubation
From the text: as §1, §2
1. Acid phosphatase -beta glycerol-3-phosphate, pH 5.0, released IP 720 nm.
Acid phosphatase activity -

in vivo = settings: mouse, Table 1, N=6
Protocol: Amine borane compounds (0 to 100 mg/kg) were administered to CF1 male mice as a single injection with six mice for each dosage. Mice were weighed daily and the number of deaths was recorded each day for a 14 day period. The LD50 value was determined by the procedure of S.C. Gad and C.S. Weil, "Statistics for Toxicologists" in Principles and Methods of Toxicology, A.W. Hayes, Ed., 2nd Edition, P 435-483 Raven Press, New York 1982.

Cathepsin [15] = target: T3, Cathepsin (Rattus norvegicus, UniProt P24268); assay: Rat PMNs cathepsin activity; assay type: cell-based; settings: pH 5; 5 × 10^-6 M, N=6; read-out: Rat PMNs Cathep.
T3 construct: azocasein assay pH 5.0
From the text: 2. PMNs-polymorphonuclear neutrophils-rat peritoneal cavity 0.5% oyster glycogen.
as §3

Cathepsin [16] = assay: Human leukocyte cathepsin; assay type: cell-based; settings: Table XIX; read-out: Human Leukocyte IC50 (head gives no enzyme; beside Cathepsin D)
From the text: 5. Human peripheral leukocytes, RPMI-1788
as §3

5'-Lipoxygenase = target: T4, 5'-Lipoxygenase (Homo sapiens, UniProt P09917); assay: Human leukocyte 5'-lipoxygenase; assay type: cell-based
T4 construct: human leukocyte tissue culture cells; endogenous in cells; host or cells: Human peripheral leukocytes, RPMI-1788
T4 sequence (P09917 1-674): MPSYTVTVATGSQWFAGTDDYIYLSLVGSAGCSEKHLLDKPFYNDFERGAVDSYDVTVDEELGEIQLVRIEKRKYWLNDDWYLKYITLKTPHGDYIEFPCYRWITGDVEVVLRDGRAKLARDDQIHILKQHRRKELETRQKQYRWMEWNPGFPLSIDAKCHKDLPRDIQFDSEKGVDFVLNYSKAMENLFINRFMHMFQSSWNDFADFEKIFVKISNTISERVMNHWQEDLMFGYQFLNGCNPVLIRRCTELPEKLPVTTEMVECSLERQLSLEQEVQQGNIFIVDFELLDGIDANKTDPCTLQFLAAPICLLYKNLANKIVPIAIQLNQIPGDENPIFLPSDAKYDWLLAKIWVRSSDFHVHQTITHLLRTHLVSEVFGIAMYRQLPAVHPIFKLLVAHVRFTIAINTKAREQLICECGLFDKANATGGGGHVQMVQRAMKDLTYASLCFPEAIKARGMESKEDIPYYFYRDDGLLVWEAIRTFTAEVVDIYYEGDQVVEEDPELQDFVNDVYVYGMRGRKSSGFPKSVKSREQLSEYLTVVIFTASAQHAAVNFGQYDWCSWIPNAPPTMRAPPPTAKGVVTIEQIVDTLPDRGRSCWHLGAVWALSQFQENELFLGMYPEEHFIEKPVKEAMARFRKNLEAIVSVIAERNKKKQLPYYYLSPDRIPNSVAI

T1 sequence (P18242 65-410): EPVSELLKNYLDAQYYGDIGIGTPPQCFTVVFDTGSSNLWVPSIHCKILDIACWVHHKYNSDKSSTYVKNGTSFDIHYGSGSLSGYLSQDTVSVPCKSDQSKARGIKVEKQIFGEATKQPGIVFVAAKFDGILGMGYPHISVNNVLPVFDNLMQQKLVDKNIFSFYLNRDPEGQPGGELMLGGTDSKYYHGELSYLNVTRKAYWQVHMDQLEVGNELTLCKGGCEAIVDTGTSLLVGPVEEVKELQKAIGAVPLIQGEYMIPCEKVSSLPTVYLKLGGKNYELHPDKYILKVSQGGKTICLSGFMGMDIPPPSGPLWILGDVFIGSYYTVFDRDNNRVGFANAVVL
T3 sequence (P24268 65-407): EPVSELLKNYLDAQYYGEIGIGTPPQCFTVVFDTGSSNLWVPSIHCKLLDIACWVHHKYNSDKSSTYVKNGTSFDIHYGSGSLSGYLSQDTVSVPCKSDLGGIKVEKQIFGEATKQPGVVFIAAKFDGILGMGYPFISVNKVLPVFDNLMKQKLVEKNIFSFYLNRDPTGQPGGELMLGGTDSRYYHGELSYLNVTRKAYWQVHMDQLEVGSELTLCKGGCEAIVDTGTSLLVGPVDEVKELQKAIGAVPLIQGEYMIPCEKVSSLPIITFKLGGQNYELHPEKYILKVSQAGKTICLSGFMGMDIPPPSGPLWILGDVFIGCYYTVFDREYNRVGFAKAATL
T2 sequence (A0A287ANF9 25-600): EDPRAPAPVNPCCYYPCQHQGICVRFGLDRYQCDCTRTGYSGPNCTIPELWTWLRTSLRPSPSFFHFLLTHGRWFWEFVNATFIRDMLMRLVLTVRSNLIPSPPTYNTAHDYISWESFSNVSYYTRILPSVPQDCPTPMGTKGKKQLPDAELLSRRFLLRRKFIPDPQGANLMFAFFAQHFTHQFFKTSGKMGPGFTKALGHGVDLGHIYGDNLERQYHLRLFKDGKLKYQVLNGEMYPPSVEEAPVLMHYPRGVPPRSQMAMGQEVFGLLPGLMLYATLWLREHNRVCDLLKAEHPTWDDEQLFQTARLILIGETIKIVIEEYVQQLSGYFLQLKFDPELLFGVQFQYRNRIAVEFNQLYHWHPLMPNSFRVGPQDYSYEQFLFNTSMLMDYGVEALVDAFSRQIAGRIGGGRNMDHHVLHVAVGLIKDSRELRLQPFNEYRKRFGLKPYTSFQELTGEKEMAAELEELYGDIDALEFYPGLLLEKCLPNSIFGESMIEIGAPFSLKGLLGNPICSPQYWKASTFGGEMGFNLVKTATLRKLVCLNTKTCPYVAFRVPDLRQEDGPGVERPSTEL

CC#N.CO.C[N+](C)(C)[BH2-]C(=O)[O-].C[N+](C)(C)[BH2-]C(=O)[O-].C[N+](C)(C)[BH2-]C(=O)[O-].C[N+](C)(C)[BH2-]C(=O)[O-].C[N+](C)(C)[BH2-]C(=O)[O-].C[N+](C)(C)[BH2-]C(=O)[O-].O.O=[N+]([O-])[O-].[Cr+3].[Cr+3].[Cr+3].[O-2] [Compound 26]
IC50 (Elastase): 5.09 µM
IC50 (Cathepsin D [1]; Table XV, mouse hepatic, 60 min incubation, read-out: Cathepsin D IC50): 5.47 µM
IC50 (Aryl sulphatase [2]): 1.2 µM
IC50 [3]: 1.62 µM
Anti-Inflammation Cf1 Mice (Cf1 male mice [4]): 58.5%
IC50 (Aryl sulphatase [5]): 7.73 µM
Tail Flick Mice (Cf1 male mice [6]): 184
Writhing Reflex Mice (Cf1 male mice [7]): 85.4%
IC50 (Trypsin [8]): 2.1 µM
Anti-Arthritis Rats (Sprague Dawley male rats [9]): 78.0
Anti-Pleurisy Rats (Sprague Dawley male rats [10]): 40.0
IC50 (Acid phosphatase [11]): 2.48 µM
IC50 (Pg. cyclooxygenase): 2.14 µM
IC50 (Commercial Collagenase): 567 µM
IC50 (Trypsin [12]): 9.96 µM
IC50 (Cathepsin D [13]): 2.49 µM
IC50 (Acid phosphatase [14]): 6.99 µM

[BH3-][NH+]1CCOCC1 [Compound 1]
activity at 5 µM (Cathepsin D [1]; pH 5, read-out: Mouse Liver Cathep.): 107%
LD50 at 336 h (in vivo): 475 mg/kg
activity at 5 µM (Cathepsin [15]): 93%

CC(C)[Si](OC[C@@H]1CC[C@H](n2ccc(N)[n+]([BH2-]C#N)c2=O)O1)(C(C)C)C(C)C [Compound 42]
IC50 (Cathepsin D [1]; read-out: Mouse Hepatic Cathepsin D IC50, Table XIX): 30.6 µM
IC50 (Cathepsin [16]): 7.31 µM
IC50 (5'-Lipoxygenase): 6.64 µM

CCOC(=O)[BH2-][N+](C)(C)C [Compound 6]
LD50 at 336 h (in vivo): 140 mg/kg
activity at 5 µM (Cathepsin [15]): 16%
